Results on one compound are retold here after ChEMBL document CHEMBL4017513, “Structure-Activity Relationships of Potent, Targeted Covalent Inhibitors That Abolish Both the Transamidation and GTP Binding Activities of Human Tissue Transglutaminase” (J Med Chem, 2017).

A short description of experiment [1]: Antimigratory activity in human ECS cells at 20 uM treated for 2 hrs measured after 30 hrs by DAPI staining-based inverted fluorescent microscopy relative vehicle-treated control. The format is functional.
Experiment [2] has as its target T1, Protein-glutamine gamma-glutamyltransferase 6 (Homo sapiens) (UniProt O95932).
T1 sequence (whole entry): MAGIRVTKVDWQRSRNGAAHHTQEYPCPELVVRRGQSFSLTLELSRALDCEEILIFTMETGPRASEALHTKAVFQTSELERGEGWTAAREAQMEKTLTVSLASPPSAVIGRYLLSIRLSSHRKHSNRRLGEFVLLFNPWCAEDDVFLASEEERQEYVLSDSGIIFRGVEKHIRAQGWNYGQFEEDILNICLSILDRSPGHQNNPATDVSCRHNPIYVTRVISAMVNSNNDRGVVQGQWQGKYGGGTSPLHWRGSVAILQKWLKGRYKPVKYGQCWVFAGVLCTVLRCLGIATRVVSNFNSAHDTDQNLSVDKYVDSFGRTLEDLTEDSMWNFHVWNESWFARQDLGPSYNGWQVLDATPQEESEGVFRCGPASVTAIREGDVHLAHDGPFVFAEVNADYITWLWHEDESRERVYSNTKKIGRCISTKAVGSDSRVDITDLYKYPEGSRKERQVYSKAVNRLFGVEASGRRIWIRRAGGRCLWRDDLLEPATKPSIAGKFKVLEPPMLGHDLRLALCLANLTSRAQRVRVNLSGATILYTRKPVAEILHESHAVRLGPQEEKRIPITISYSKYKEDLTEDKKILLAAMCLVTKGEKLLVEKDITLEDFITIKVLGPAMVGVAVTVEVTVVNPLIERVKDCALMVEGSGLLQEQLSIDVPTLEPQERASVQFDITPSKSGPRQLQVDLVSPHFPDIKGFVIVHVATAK
The experiment in a line: Inactivation of human TG6 using AL5 as substrate by colorimetric assay.

For experiment [3], the species on record is Cavia porcellus. The experiment is described as follows: Ratio of Kinact to Ki for guinea pig liver TG2.
The target of experiment [4] is T2, Coagulation factor XIII A chain (Homo sapiens) (UniProt P00488).
T2 sequence (whole entry): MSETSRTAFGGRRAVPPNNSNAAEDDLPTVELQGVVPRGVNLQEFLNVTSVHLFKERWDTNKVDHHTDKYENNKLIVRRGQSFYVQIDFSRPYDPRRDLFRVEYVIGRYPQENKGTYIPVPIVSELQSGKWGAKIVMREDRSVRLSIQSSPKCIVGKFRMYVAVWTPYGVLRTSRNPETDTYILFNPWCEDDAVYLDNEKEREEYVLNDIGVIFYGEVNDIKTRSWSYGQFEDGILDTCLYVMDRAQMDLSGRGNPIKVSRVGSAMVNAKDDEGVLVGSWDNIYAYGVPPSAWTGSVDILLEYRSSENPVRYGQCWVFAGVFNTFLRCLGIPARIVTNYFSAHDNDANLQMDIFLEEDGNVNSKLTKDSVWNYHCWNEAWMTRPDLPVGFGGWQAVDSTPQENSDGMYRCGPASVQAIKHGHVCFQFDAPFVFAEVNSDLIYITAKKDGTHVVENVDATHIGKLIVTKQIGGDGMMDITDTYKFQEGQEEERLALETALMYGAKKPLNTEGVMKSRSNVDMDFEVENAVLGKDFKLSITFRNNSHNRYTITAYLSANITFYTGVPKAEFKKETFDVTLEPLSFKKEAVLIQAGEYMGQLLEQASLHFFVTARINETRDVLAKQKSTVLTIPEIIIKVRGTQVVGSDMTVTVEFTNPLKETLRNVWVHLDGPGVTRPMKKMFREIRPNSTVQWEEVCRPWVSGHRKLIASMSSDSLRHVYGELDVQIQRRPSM
The experiment is described as follows: Inactivation of human F13a assessed as rate constant of enzyme inhibition using FRET- quenched A101 as substrate by fluorescence assay.

`C=CC(=O)NCCCC[C@H](NC(=O)OCc1ccccc1)C(=O)NCCOCCOCCNS(=O)(=O)c1cccc2c(N(C)C)cccc12`: in experiment [1], the Activity amounted to 50%. The K in experiment [2] is 6.16 ×10⁻³ /min; in experiment [4], 5.91 ×10⁻³ /min. Also, in experiment [3], the Ratio came out at 1.4 ×10⁴ /M/min.
